Measurements taken from patent US20240092795A1, “PYRIDINE COMPOUNDS AS ALLOSTERIC SHP2 INHIBITORS” (Revolution Medicines, Inc., priority 2017, published 2024).

Target: SHP2 (Homo sapiens (Human), UniProt Q06124)
Assay: SHP2 Allosteric Inhibition Assay (DiFMUP prompt fluorescence)
Assay type: biochemical
Conditions: 0.2 nM SHP2 with 0.5 μM Activating Peptide 1 or 2, surrogate substrate DiFMUP, 25° C.; read-out: SHP2 Allosteric Biochem: IC50
Excerpt: Without wishing to be bound by theory, SHP is allosterically activated through binding of bis-tyrosyl-phosphorylated peptides to its Src Homology 2 (SH2) domains. The latter activation step leads to the release of the auto-inhibitory interface of SHP2, which in turn renders the SHP2 protein tyrosine phosphatase (PTP) active and available for substrate recognition and reaction catalysis. The catalytic activity of SHP2 was monitored using the surrogate substrate DiFMUP in a prompt fluorescence assay format.
The phosphatase reactions were performed at room temperature in 96-well black polystyrene plate, flat bottom, non-binding surface (Corning, Cat #3650) using a final reaction volume of 100 μL and the following assay buffer conditions: 50 mM HEPES, pH 7.2, 100 mM NaCl, 0.5 mM EDTA, 0.05% P-20, 1 mM DTT.
The inhibition of SHP2 by compounds of the disclosure (concentrations varying from 0.00005-10 μM) was monitored using an assay in which 0.2 nM of SHP2 was incubated with 0.5 μM of Activating Peptide 1 (sequence: H2N-LN(pY)IDLDLV(dPEG8)LST (pY)ASINFQK-amide) or Activating Peptide 2 (sequence: H2N-LN(pY)AQLWHA(dPEG8) LTI(pY)ATIRRF-amide). After 30-60-minutes incubation at 25° C., the surrogate substrate DiFMUP (Invitrogen, Cat #D6567) was added to the reaction and activity was determined by a kinetic read using a microplate reader (Envision, Perkin-Elmer or Spectramax M5, Molecular Devices). The excitation and emission wavelengths were 340 nm and 450 nm, respectively. Initial rates were determined from a linear fit of the data, and the inhibitor dose response curves were analyzed using normalized ICso regression curve fitting with control based normalization.

Chain of SHP2 (Q06124 whole entry): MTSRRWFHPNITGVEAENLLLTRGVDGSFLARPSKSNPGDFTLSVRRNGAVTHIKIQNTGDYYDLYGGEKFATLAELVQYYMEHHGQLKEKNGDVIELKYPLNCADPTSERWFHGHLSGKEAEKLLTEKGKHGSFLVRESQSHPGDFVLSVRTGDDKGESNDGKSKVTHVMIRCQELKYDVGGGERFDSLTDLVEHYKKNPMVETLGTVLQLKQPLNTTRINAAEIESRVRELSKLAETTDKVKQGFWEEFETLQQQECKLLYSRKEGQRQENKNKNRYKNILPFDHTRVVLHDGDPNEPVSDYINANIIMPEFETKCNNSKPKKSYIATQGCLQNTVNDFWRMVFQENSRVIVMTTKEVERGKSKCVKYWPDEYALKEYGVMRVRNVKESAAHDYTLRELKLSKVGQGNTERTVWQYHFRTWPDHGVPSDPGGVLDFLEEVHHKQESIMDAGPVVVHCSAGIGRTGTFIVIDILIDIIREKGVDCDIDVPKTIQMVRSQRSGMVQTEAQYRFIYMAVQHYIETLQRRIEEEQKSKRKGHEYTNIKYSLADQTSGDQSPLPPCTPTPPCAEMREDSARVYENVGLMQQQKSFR

Row | SMILES | IC50 [nM]
1 | N[C@@H]1CCCC12CCN(c1cc(O)c(-c3cccc(Cl)c3Cl)nc1CO)CC2 [Example 1, 5-[(4R)-4-amino-8-azaspiro[4.5]decan-8-yl]-2-(2,3-dichlorophenyl)-6-(hydroxymethyl)pyridin-3-ol] | 210
2 | N[C@@H]1CCCC12CCN(c1cc(O)c(Sc3cccc(Cl)c3Cl)nc1CO)CC2 [Example 2, 5-[(1R)-1-amino-8-azaspiro[4.5]decan-8-yl]-2-[(2,3-dichlorophenyl)sulfanyl]-6-(hydroxymethyl)pyridin-3-ol] | 37
3 | N[C@@H]1CCCC12CCN(c1cnc(-c3cccc(Cl)c3Cl)c(O)c1)CC2 [Example 3, 5-[(1R)-1-amino-8-azaspiro[4.5]decan-8-yl]-2-(2,3-dichlorophenyl)pyridin-3-ol] | 740
4 | Cc1cc(N2CCC3(CCC[C@H]3N)CC2)c(CO)nc1-c1cccc(Cl)c1Cl [Example 4, {3-[(1R)-1-amino-8-azaspiro[4.5]decan-8-yl]-6-(2,3-dichlorophenyl)-5-methylpyridin-2-yl}methanol] | 69
5 | Cc1cc(N2CCC3(CCC[C@H]3N)CC2)cnc1-c1cccc(Cl)c1Cl [Example 5, (1R)-8-[6-(2,3-dichlorophenyl)-5-methylpyridin-3-yl]-8-azaspiro[4.5]decan-1-amine] | 210
